Like-named read-outs stand apart in the source and are kept apart here.
Experiments:
EGFR wild type = molecular target: T1, EGFR wild type (Homo sapiens, UniProt P00533); assay: Inhibition of EGFR wild type biochemical enzymatic activity (HTRF); conditions: EGFR WT, 1 mM ATP, 1 h, room temperature, read-out: IC50 (nM) @WT
T1 construct: purchased Carna Bio
Protocol: (§1) Biological Example 1: Inhibition of EGFR WT and Mutant Biochemical Enzymatic Activity
(§2) The inhibition potency of compounds against these enzymes was assessed using Homogenous Time Resolved Fluorescence approach (HTRF, CisBio. Cat No. 62TKOPEJ).
(§3) Inhibitory effects of the compounds were determined by measuring the enzymatic activity of EGFR enzyme phosphorylates 1 μM TK Substrate-biotin in the presence of 1 mM adenosine-5′-triphosphate (ATP) and varying concentrations of the test compound. The enzyme reaction buffer contains 5 mM MgCl2, 1 mM MnC12, 0.01% CHAPS, 1 mM dithiothreitol (DTT), 0.5% dimethylsulfoxide (DMSO), and 1× supplemented enzymatic buffer. The WT and mutant EGFR enzymes (SignalChem) were added to plates containing inhibitors, followed by activation of the kinase reaction by addition of ATP and peptide substrates. After incubation for 1 h at room temperature, the reaction was stopped by the addition of the detection reagent mix containing EDTA. The fluorescence was measured at 615 nm and 665 nm, respectively with excitation wavelength at 320 nm. The calculated signal ratio of 665 nm/615 nm is proportional to the kinase activity. The concentration of compound producing 50% inhibition of the respective kinase (IC50) was calculated using four-parameter logistic fit with XL-FIT.

EGFR L858R = molecular target: T2, EGFR L858R (Homo sapiens, UniProt P00533, L858R); assay: Inhibition of EGFR L858R biochemical enzymatic activity (HTRF); conditions: 1 mM ATP, 1 h, room temperature, read-out: IC50 (nM) @L858R
T2 construct: purchased Carna Bio
Protocol: as §1, §2, §3

EGFR L858R/T790M = molecular target: T3, EGFR L858R/T790M (Homo sapiens, UniProt P00533, L858R/T790M); assay: Inhibition of EGFR L858R/T790M biochemical enzymatic activity (HTRF); conditions: EGFR L858R-T790M, 1 mM ATP, 1 h, room temperature, read-out: IC50 (nM) @L858R-T790M
T3 construct: purchased Carna Bio
T3 sequence (P00533 25-1210 T790M/L858R): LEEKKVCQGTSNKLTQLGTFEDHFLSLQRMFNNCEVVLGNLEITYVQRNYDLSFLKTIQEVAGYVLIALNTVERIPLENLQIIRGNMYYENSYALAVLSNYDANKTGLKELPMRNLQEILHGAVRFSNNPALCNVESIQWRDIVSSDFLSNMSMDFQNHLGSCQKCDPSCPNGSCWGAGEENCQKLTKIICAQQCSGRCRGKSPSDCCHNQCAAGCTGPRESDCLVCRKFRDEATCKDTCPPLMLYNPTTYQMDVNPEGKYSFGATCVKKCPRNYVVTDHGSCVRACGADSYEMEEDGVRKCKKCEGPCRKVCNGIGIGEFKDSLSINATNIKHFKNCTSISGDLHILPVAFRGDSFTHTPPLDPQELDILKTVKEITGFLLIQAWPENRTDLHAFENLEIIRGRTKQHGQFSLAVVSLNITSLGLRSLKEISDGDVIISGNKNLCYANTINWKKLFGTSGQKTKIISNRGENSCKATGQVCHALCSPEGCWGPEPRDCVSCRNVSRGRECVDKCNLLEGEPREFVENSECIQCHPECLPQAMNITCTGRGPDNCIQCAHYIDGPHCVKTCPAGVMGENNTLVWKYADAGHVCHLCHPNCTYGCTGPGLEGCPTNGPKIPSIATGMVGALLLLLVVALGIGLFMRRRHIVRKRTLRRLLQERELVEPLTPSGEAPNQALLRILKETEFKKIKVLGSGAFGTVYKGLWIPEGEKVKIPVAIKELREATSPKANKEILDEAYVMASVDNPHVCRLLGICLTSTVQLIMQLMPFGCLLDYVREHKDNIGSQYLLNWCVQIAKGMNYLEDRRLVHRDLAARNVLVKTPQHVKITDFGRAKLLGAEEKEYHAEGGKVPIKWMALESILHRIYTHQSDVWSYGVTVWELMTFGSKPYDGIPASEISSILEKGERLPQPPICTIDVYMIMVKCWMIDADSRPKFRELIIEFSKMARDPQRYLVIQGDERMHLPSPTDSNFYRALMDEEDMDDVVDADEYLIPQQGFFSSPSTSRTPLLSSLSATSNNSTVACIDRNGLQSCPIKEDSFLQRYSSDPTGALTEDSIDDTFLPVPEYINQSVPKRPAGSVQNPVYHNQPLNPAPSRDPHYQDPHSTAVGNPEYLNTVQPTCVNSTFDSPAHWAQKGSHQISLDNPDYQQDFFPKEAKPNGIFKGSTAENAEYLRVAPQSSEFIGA
Protocol: as §1, §2, §3

EGFR Exon19Del = molecular target: T4, EGFR Exon19Del (Homo sapiens, UniProt P00533, DEL746-750); assay: Inhibition of EGFR Exon19Del biochemical enzymatic activity (HTRF); conditions: EGFR Del19, 1 mM ATP, 1 h, room temperature, read-out: IC50 @Del19
T4 construct: purchased Carna Bio
T4 sequence (P00533 with tags, fused parts or gaps DEL746-750 limits assumed): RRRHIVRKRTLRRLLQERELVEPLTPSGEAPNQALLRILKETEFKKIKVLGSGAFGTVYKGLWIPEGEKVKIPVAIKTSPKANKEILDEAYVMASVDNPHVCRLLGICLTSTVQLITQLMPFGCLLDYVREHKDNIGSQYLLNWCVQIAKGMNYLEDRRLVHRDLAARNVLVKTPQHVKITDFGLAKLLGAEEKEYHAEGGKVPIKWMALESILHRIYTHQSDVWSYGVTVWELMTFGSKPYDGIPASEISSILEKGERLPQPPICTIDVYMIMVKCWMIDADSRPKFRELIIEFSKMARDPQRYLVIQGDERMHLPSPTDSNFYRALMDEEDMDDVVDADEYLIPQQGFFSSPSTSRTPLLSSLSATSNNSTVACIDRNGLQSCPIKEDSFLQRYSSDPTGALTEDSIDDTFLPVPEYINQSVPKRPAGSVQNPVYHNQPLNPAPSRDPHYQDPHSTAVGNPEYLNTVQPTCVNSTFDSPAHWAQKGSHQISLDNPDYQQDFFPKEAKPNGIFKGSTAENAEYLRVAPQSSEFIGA
Protocol: as §1, §2, §3

EGFR Exon19Del/T790M = molecular target: T5, EGFR Exon19Del/T790M (Homo sapiens, UniProt P00533, DEL746-750/T790M); assay: Inhibition of EGFR Exon19Del/T790M biochemical enzymatic activity (HTRF); conditions: EGFR Del19-T790M, 1 mM ATP, 1 h, room temperature, read-out: IC50 (nM) @Del19-T790M
T5 construct: purchased Carna Bio
T5 sequence (P00533 with tags, fused parts or gaps DEL746-750/T790M limits assumed): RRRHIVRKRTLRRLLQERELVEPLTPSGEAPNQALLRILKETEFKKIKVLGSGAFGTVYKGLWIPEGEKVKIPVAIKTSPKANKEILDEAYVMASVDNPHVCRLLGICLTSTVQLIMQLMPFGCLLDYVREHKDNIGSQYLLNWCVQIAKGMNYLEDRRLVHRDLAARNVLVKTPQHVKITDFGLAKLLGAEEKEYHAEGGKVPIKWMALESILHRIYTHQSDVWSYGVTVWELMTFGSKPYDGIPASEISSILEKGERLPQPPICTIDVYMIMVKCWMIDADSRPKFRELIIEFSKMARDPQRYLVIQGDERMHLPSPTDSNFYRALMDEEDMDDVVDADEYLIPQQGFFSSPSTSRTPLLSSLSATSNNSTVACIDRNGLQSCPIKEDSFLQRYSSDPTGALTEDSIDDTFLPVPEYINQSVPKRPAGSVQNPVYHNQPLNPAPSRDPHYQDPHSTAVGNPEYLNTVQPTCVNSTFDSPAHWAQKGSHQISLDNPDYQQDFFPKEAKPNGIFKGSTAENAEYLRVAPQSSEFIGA
Protocol: as §1, §2, §3

EGFR[T790M/C797S/L858R] = molecular target: T6, EGFR[T790M/C797S/L858R] (Homo sapiens, UniProt P00533, C797S/L858R/T790M); assay: Inhibition of EGFR[T790M/C797S/L858R] biochemical enzymatic activity (HTRF); conditions: EGFR T790M-C797S-L858R, 1 mM ATP, 1 h, room temperature, read-out: IC50 (nM) @T790M- C797S - L858R
T6 construct: purchased Carna Bio
Protocol: as §1, §2, §3

[1] = molecular target: T7, EGFR[T790M/C797S/d746-750] (Homo sapiens, UniProt P00533, C797S/DEL746-750/T790M); assay: Inhibition of EGFR[T790M/C797S/d746-750] biochemical enzymatic activity (HTRF); conditions: EGFR T790M-C797S-Del19, 1 mM ATP, 1 h, room temperature, read-out: IC50 (nM) @T790M - C797S - Del19
T7 construct: purchased Carna Bio
T7 sequence (P00533 with tags, fused parts or gaps DEL746-750/T790M/C797S limits assumed): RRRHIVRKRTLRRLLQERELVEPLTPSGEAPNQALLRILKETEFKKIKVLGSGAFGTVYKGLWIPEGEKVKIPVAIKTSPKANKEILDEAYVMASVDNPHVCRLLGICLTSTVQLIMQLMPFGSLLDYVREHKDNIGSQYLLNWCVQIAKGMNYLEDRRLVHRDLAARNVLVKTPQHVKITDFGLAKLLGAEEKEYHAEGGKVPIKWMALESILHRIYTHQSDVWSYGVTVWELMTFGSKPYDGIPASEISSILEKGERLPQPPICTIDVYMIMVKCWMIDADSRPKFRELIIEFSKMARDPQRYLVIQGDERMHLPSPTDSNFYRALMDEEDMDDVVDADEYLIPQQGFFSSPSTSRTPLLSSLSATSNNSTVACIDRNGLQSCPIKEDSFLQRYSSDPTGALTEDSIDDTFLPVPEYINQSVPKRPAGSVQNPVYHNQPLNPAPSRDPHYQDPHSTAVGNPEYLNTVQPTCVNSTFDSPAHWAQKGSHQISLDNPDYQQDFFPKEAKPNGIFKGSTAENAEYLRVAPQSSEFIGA
Protocol: as §1, §2, §3

EGFR (d746-750 C797S) = molecular target: T8, EGFR (d746-750 C797S) (Homo sapiens, UniProt P00533, C797S/DEL746-750); assay: Inhibition of EGFR (d746-750 C797S) biochemical enzymatic activity (HTRF); conditions: EGFR Del19-C797S, 1 mM ATP, 1 h, room temperature, read-out: IC50 (nM) @Del19-C797S
T8 construct: purchased signalchem
T8 sequence (P00533 with tags, fused parts or gaps DEL746-750/C797S limits assumed): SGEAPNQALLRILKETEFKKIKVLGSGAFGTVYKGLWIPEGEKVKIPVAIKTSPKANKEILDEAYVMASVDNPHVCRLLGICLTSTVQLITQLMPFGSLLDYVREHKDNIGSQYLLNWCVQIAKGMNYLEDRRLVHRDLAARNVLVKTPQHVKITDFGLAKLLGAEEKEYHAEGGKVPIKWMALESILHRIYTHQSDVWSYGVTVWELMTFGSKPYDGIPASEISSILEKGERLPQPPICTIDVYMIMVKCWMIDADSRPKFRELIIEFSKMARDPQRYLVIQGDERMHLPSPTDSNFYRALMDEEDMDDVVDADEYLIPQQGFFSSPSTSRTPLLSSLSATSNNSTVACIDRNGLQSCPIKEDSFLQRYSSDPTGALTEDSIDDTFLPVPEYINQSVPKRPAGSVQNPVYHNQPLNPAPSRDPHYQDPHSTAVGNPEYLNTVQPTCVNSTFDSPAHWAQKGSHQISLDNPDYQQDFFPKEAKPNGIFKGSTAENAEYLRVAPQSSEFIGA
Protocol: as §1, §2, §3

EGFR (C797S L858R) = molecular target: T9, EGFR (C797S L858R) (Homo sapiens, UniProt P00533, C797S/L858R); assay: Inhibition of EGFR (C797S L858R) biochemical enzymatic activity (HTRF); conditions: EGFR L858-C797S, 1 mM ATP, 1 h, room temperature, read-out: IC50 (nM) @L858-C797S
T9 construct: purchased signalchem
T9 sequence (P00533 25-1210 C797S/L858R): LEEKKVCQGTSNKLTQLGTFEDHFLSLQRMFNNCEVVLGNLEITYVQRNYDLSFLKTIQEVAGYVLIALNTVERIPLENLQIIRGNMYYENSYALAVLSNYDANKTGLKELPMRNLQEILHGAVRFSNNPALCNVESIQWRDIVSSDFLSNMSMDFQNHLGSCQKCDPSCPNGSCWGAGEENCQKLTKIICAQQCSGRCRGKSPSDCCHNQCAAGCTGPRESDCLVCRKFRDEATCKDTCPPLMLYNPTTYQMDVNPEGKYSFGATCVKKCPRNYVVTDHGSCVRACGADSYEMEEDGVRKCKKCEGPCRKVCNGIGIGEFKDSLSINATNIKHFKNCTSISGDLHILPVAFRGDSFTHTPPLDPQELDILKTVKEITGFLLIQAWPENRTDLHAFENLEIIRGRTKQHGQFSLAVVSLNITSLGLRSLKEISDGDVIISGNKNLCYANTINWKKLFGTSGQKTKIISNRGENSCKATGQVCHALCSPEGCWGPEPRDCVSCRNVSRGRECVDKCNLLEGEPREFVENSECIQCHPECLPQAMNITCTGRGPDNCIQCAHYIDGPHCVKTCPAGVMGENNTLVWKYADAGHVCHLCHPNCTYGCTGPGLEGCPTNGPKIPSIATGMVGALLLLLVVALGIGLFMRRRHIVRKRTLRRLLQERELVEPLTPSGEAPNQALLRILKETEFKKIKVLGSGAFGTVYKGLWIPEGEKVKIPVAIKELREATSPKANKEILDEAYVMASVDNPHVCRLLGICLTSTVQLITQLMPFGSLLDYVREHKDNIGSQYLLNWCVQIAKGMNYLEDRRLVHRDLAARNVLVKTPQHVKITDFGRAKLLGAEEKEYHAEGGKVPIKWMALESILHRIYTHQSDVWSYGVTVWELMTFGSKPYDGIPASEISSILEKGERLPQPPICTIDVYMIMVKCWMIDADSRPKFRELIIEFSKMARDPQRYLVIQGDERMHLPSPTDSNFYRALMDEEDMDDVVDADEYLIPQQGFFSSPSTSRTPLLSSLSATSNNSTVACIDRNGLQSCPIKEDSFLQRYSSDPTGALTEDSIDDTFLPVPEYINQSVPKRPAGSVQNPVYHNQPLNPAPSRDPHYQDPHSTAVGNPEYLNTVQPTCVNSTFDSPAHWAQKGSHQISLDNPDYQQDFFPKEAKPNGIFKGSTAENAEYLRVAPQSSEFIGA
Protocol: as §1, §2, §3

[2] = tested on: Ba/F3 cells expressing EGFR mutations; assay: Cell proliferation assay, Ba/F3 cells expressing EGFR mutations (CellTiter-Glo, 72 hours); type: cell-based; conditions: CellTiter-Glo
Protocol: (§4) Biological Example 2: Cell Proliferation Assays
(§5) Ba/F3 cells expressing EGFR mutations were seeded in 384-well plates at 5000 cells/well in RPMI1640 medium containing […]. PC-9 at 500 cells/well was seeded into 384-well plates in RPMI1640 medium with 10% FBS. After overnight incubation, the assay plates were dosed with compounds at a series of concentrations. Alongside dosing the assay plates, the day 0 plate was processed using CellTiter-Glo® Luminescent Cell Viability Assay (Promega) to measure the number of viable cells (G0). The assay plates were further incubated for 72 hours and the number of viable cells (G3) was measured. The percentage of proliferation was calculated as: […]=100×(G3 value of sample well−G0 value)/(G3 value of DMSO control−G0 value). The concentration of compound producing 50% proliferation inhibition (GI50) was further calculated in best-fit curves using XLFit software. N/A=not available.

PC-9 = assay: Cell proliferation assay, PC-9 cells (CellTiter-Glo, 72 hours); type: cell-based; conditions: PC9 cells, CellTiter-Glo, read-out: PC9 GI50
Protocol: as §4, §5

[3] = BaF3 cells, EGFR DEL19-C797S, read-out: DEL19-C797S/BaF3 GI50
[4] = BaF3 cells, EGFR DEL19-T790-C797S, read-out: DEL19-T790-C797S/BaF3 GI50
[5] = BaF3 cells, EGFR L858R, read-out: L858R/BaF3 GI50
[6] = BaF3 cells, EGFR L858R-C797S, read-out: L858R-C797S/BaF3 GI50
[7] = BaF3 cells, EGFR L858R-T790-C797S, read-out: L858R-T790-C797S/BaF3 GI50
[8] = BaF3 cells, EGFR L858R-T790M, read-out: L858R-T790M/BaF3 GI50
[9] = EGFR DEL19-T790M, read-out: DEL19-T790M GI50

SMILES | IC50 (EGFR wild type) [nM] | IC50 (EGFR L858R) [nM] | IC50 (EGFR L858R/T790M) [nM] | IC50 (EGFR Exon19Del) [nM] | IC50 (EGFR Exon19Del/T790M) [nM] | IC50 (EGFR[T790M/C797S/L858R]) [nM] | IC50 [1] [nM] | IC50 (EGFR (d746-750 C797S)) [nM] | IC50 (EGFR (C797S L858R)) [nM] | GI50 [2, 3] [nM] | GI50 [2, 4] [nM] | GI50 [2, 5] [nM] | GI50 [2, 6] [nM] | GI50 [2, 7] [nM] | GI50 [2, 8] [nM] | GI50 [2, 9] [nM] | GI50 (PC-9) [nM] | also measured
CN1CCC2(CCN(c3ccc4nc5n(c4c3)C34CCC(CN(CCOc6c(cnn6C)-c6cc(cn(C)c6=O)C(=O)N5)C3)C4)CC2)C1 (single isomer, unassigned) [Example A82A] | 341 | 1210 | > 5000 | 310 | 1410 | > 5000 | 629 | 226 | 2140 | 96 | 186 | 108 | 76 | 129 | 137 | 200 | 92 | 
CN(C)C1CN(c2ccc3nc4n(c3c2)C23CCC(CN(CCOc5c(cnn5C)-c5cc(cn(C)c5=O)C(=O)N4)C2)C3)CC1F (single isomer, unassigned) [Example A84B, 15,21-Dimethyl-5-[4-fluoro-3-(N,N-dimethylamino)pyrrolidinyl]-23-oxa-2,9,11,15,20,21,26-heptaazaheptacyclo[24.4.1.1^{1,28}.1^{13,17}.0^{2,10}.0^{3,8}.0^{18,22}]tritriaconta-3,5,7,9,13,17(33),18(22),19-octaene-12,16-dione] | > 5000 | 1310 | > 5000 | 451 | > 5000 | > 5000 | > 5000 | 400 | 1140 | 157 | 516 | 480 | 302 | 1040 | 997 | 545 | 768 | 
CN(C)CCN(C)c1ccc2nc3n(c2c1)C12CCC(CN(CCOc4c(cnn4C)-c4cc(cn(C)c4=O)C(=O)N3)C1)C2 (single isomer, unassigned) [Example A85A] | > 5000 | 1590 | > 5000 | 138 | > 5000 | > 5000 | 3660 | 308 | 1280 | 95 | 119 | 188 | 167 | 303 | 364 | 159 | 387 | 
CN1CCOC2(C1)CN(c1ccc3nc4n(c3c1)C13CCC(CN(CCOc5c(cnn5C)-c5cc(cn(C)c5=O)C(=O)N4)C1)C3)C2 (single isomer, unassigned) [Example A86A] | > 5000 | 2120 | > 5000 | 689 | > 5000 | > 5000 | > 5000 | 599 | 2820 | 50 | 120 | 181 | 244 | 264 | 367 | 123 | 989 | 
CN(C)CCC1CN(c2ccc3nc4n(c3c2)C23CCC(CN(CCOc5c(cnn5C)-c5cc(cn(C)c5=O)C(=O)N4)C2)C3)C1 (single isomer, unassigned) [Example A95B] | 55 | 7 | 3.7 | 1.7 | 3.1 | 3.3 | 2.7 | 1.5 | 4.7 |  |  |  |  |  |  |  |  | GI50 ([2]; Mus musculus, BaF3, 72 h, BaF3 cells, EGFR DEL19-C797S, read-out: DEL19-C797S/BaF3 GI50): 95 nM; GI50 ([2]; Mus musculus, BaF3, 72 h, BaF3 cells, EGFR DEL19-T790-C797S, read-out: DEL19-T790-C797S/BaF3 GI50): 228 nM; GI50 ([2]; Mus musculus, BaF3, 72 h, BaF3 cells, EGFR L858R, read-out: L858R/BaF3 GI50): 357 nM; GI50 ([2]; Mus musculus, BaF3, 72 h, BaF3 cells, EGFR L858R-C797S, read-out: L858R-C797S/BaF3 GI50): 436 nM; GI50 ([2]; Mus musculus, BaF3, 72 h, BaF3 cells, EGFR L858R-T790-C797S, read-out: L858R-T790-C797S/BaF3 GI50): 574 nM; GI50 ([2]; Mus musculus, BaF3, 72 h, BaF3 cells, EGFR L858R-T790M, read-out: L858R-T790M/BaF3 GI50): 1080 nM; GI50 ([2]; Mus musculus, BaF3, 72 h, EGFR DEL19-T790M, read-out: DEL19-T790M GI50): 177 nM; GI50 (PC-9; Homo sapiens, PC-9, 72 h): 2460 nM
CN1C2CC1CN(c1ccc3nc4n(c3c1)C13CCC(CN(CCOc5c(cnn5C)-c5cc(cn(C)c5=O)C(=O)N4)C1)C3)C2 (single isomer, unassigned) [Example A98A] | > 5000 | 1270 | > 5000 | 235 | 3410 | > 5000 | 2080 | 391 | 3370 | 95 | 340 | 47 | 173 | 49 | 343 | 171 | 297 | 
CN1CC2CC1CN2c1ccc2nc3n(c2c1)C12CCC(CN(CCOc4c(cnn4C)-c4cc(cn(C)c4=O)C(=O)N3)C1)C2 (single isomer, unassigned) [Example A105A] | > 5000 | 2600 | > 5000 | 381 | > 5000 | > 5000 | 4190 | 330 | 2770 | 100 | 341 | 617 | 263 | 652 | 246 | 363 | 683 | 

Reference: patent US20260365670A1, “EGFR INHIBITORS AND USES THEREOF” (DIZAL (JIANGSU) PHARMACEUTICAL CO., LTD., priority 2022, published 2026)
